According to patent US20060280894A1, “Metal complexes as light-absorbing compounds in the information layer of optical data carriers” (priority 2003, published 2006):
Like-named read-outs stand apart in the source and are kept apart here. Marks after values point to notes of the source that are not given here.

Experiment: Absorption spectrum measured in solution
[1] = molar extinction coefficient at λmax, solvent as given for λmax

Compound | λmax | ε [L/mol/cm] | λ1/2-λ1/10 [nm] | further results
CCN(CC)c1ccc(N=Nc2nc(C#N)c(C#N)[nH]2)c([N-]S(=O)(=O)N(C)C)c1.CCN(CC)c1ccc(N=Nc2nc(C#N)c(C#N)[nH]2)c([N-]S(=O)(=O)N(C)C)c1.[Ni+2] [Example 18] | – | – | – | λmax (in methanol): 518^4) nm; ε [1]: 92143 L/mol/cm; λ1/2-λ1/10 (on the long wavelength flank): 21 nm
CCN(CC)c1cc([N]([Ni][N](c2cc(N(CC)CC)c(OC)cc2N=Nc2nc(-c3ccccc3)ns2)S(=O)(=O)N(C)C)S(=O)(=O)N(C)C)c(N=Nc2nc(-c3ccccc3)ns2)cc1OC [Example 35] | 544 nm | – | – | –
CCN(CC)c1ccc(N=Nc2nnc(C)s2)c([N]([Co][N](c2cc(N(CC)CC)ccc2N=Nc2nnc(C)s2)S(=O)(=O)N(C)C)S(=O)(=O)N(C)C)c1 [Example 30] | – | – | – | λmax (in methylene chloride): 554 nm
CCN(CC)c1ccc(N=Nc2nc(C#N)c(C#N)n2C)c([N-]S(=O)(=O)N(C)C)c1.CCN(CC)c1ccc(N=Nc2nc(C#N)c(C#N)n2C)c([N-]S(=O)(=O)N(C)C)c1.[Co+2] [Example 16] | 543 nm | 94990 | 33 | –
CCN(CC)c1ccc(N=Nc2nc(-c3ccccc3)ns2)c([N-]S(=O)(=O)N(C)C)c1.CCN(CC)c1ccc(N=Nc2nc(-c3ccccc3)ns2)c([N-]S(=O)(=O)N(C)C)c1.[Co+2] [Example 12] | 551 nm | 92750 | 32 | –
CCN(CC)c1cc([N]([Co][N](c2cc(N(CC)CC)c(C)cc2N=Nc2nc(-c3ccccc3)ns2)S(=O)(=O)N(C)C)S(=O)(=O)N(C)C)c(N=Nc2nc(-c3ccccc3)ns2)cc1C [Example 38] | 554^5) nm | – | – | –
CCN(CC)c1cc([N]([Ni][N](c2cc(N(CC)CC)c(C)cc2N=Nc2nc(-c3ccccc3)ns2)S(=O)(=O)N(C)C)S(=O)(=O)N(C)C)c(N=Nc2nc(-c3ccccc3)ns2)cc1C [Example 36] | 552^5) nm | – | – | –
CCN(CC)c1ccc(N=Nc2nc(-c3ccccc3)ns2)c([N-]S(=O)(=O)N(C)C)c1.CCN(CC)c1ccc(N=Nc2nc(-c3ccccc3)ns2)c([N-]S(=O)(=O)N(C)C)c1.[Ni+2] [Example 11] | 530 nm | 86514 | – | –
CCN(CC)c1ccc(N=Nc2nc(C#N)c(C#N)[nH]2)c([N-]P(=O)(OCC(F)(F)C(F)F)OCC(F)(F)C(F)F)c1.CCN(CC)c1ccc(N=Nc2nc(C#N)c(C#N)[nH]2)c([N-]P(=O)(OCC(F)(F)C(F)F)OCC(F)(F)C(F)F)c1.[Ni+2] [Example 5] | 510^4) nm | 70893 | 21 | –
CCCNS(=O)(=O)[N-]c1cc(N(CC)CC)ccc1N=Nc1nc(C#N)c(C#N)[nH]1.CCCNS(=O)(=O)[N-]c1cc(N(CC)CC)ccc1N=Nc1nc(C#N)c(C#N)[nH]1.[Ni+2] [Example 6] | – | – | – | ε [1]: 34523 L/mol/cm; λ1/2-λ1/10 (on the long wavelength flank): 21 nm
CCN(CC)c1ccc(N=Nc2nc(-c3ccccc3)ns2)c([N]([Ni][N](c2cc(N(CC)CC)ccc2N=Nc2nc(-c3ccccc3)ns2)P(=O)(OC)c2ccccc2)P(=O)(OC)c2ccccc2)c1 (centres unmarked) [Example 23] | 538^5) nm | 90126 | 61 | –
CCN(CC)c1ccc(N=Nc2nnc(C)s2)c([N]([Ni][N](c2cc(N(CC)CC)ccc2N=Nc2nnc(C)s2)S(=O)(=O)N(C)C)S(=O)(=O)N(C)C)c1 [Example 29] | – | – | – | λmax (in methylene chloride): 554 nm; ε [1]: 84070 L/mol/cm; λ1/2-λ1/10 (on the long wavelength flank): 26 nm
CCN(CC)c1ccc(N=Nc2nc(-c3ccccc3)ns2)c([N]([Ni][N](c2cc(N(CC)CC)ccc2N=Nc2nc(-c3ccccc3)ns2)S(=O)(=O)NCC(F)(F)C(F)F)S(=O)(=O)NCC(F)(F)C(F)F)c1 [Example 31] | – | – | – | λmax (in methylene chloride): 556 nm
CCN(CC)c1ccc(N=Nc2nc(C#N)c(C#N)n2C)c([N-]S(=O)(=O)N(C)C)c1.CCN(CC)c1ccc(N=Nc2nc(C#N)c(C#N)n2C)c([N-]S(=O)(=O)N(C)C)c1.[Ni+2] [Example 15] | 540 nm | 107238 | 21 | –
CCN(CC)c1ccc(N=Nc2nc(C#N)c(C#N)n2C)c([N-]P(=O)(OCC(F)(F)C(F)F)OCC(F)(F)C(F)F)c1.CCN(CC)c1ccc(N=Nc2nc(C#N)c(C#N)n2C)c([N-]P(=O)(OCC(F)(F)C(F)F)OCC(F)(F)C(F)F)c1.[Co+2] [Example 3] | 538^5) nm | 92203 | 33 | –
CCN(CC)c1ccc(N=Nc2nc(C#N)c(C#N)n2C)c([N-]S(=O)(=O)N(C)C)c1.CCN(CC)c1ccc(N=Nc2nc(C#N)c(C#N)n2C)c([N-]S(=O)(=O)N(C)C)c1.[Zn+2] [Example 17] | – | 111931 | 12 | –
CCN(CC)c1ccc(N=Nc2nc(C#N)c(C#N)n2C)c([N-]P(=O)(OCC(F)(F)C(F)F)OCC(F)(F)C(F)F)c1.CCN(CC)c1ccc(N=Nc2nc(C#N)c(C#N)n2C)c([N-]P(=O)(OCC(F)(F)C(F)F)OCC(F)(F)C(F)F)c1.[Cu+2] [Example 4] | 533^5) nm | 88071 | 29 | –
